Data on eleven compounds can be found in ChEMBL document CHEMBL1201862, “PubChem BioAssay data set” (2004).

One may read the GI50 as the concentration that inhibits growth by half.

Test systems include T47D; SK-MEL-2; A498; EKVX; U-251; LOX IMVI; SF-295; RPMI-8226; NCI-H23; MOLT-4; ACHN; MDA-MB-435; OVCAR-5; Malme-3M; SNB-19; IGROV-1; OVCAR-3; SK-MEL-28; M14; A549.
Holding throughout (assay): DTP human tumour cell line panel, 48 h

Molecules are shown by their SMILES.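 Following 48 hours of exposure in 96-well plates, responses at five concentrations were used to interpolate endpoints linearly. GI50 marks 50% less growth.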 Calls of active or inactive are those of the source. Rule as the data show it: active = GI50 up to about 1.1 µM and inactive = higher.

`CC(C)(C)C1CCC(=O)/C(=C/CC2CC(=O)N(c3ccccc3)C(=O)C2)C1` (stereo not drawn): the GI50 in the assay with T47D is 21.8 µM (inactive); with SK-MEL-2, 19.4 µM (inactive); with A498 it was 24.5 µM (inactive); with EKVX it was 26 µM (inactive); with U-251 it was 14.9 µM (inactive); in the assay on LOX IMVI, 13.7 µM (inactive). Also, the GI50 with SF-295 was 47.8 µM (inactive); with RPMI-8226 it was 18.7 µM (inactive); in the assay with NCI-H23, 17.8 µM (inactive); in the assay on MOLT-4, 34.1 µM (inactive); in the assay on ACHN, 19.9 µM (inactive); in the assay with MDA-MB-435 it was 23.8 µM (inactive). For the same compound, the GI50 in the assay with OVCAR-5 is 17.4 µM (inactive); in the assay with Malme-3M, 18.6 µM (inactive); with SNB-19 it was 22 µM (inactive); with IGROV-1, 19.7 µM (inactive); with OVCAR-3 it was 23.1 µM (inactive); in the assay on SK-MEL-28, 21.2 µM (inactive).
Consider `c1cc(NNc2cccc(-c3nnn[nH]3)c2)cc(-c2nnn[nH]2)c1`, for which the GI50 in the assay with T47D, in the assay on SK-MEL-2, with A498, in the assay on EKVX, in the assay on U-251 and in the assay on LOX IMVI was > 100 µM (inactive) in each case. The GI50 with SF-295, in the assay on RPMI-8226, in the assay with NCI-H23, in the assay on ACHN, in the assay on MDA-MB-435 and in the assay with OVCAR-5 was > 100 µM (inactive) each time. Also, the GI50 with Malme-3M, with SNB-19, in the assay on M14, with A549, with IGROV-1 and with OVCAR-3 was > 100 µM (inactive) throughout. In the assay with SK-MEL-28, the GI50 is > 100 µM (inactive).
With `Nc1nc(Cl)cc(NCC2CC(O)(CO)C2)n1` (stereo not drawn), the GI50 with T47D, with SK-MEL-2, with A498, with EKVX, with U-251 and with LOX IMVI was > 100 µM (inactive) throughout. Also, the GI50 with SF-295, with RPMI-8226, with NCI-H23, in the assay with MOLT-4, in the assay on ACHN and in the assay on MDA-MB-435 was > 100 µM (inactive) each time. Besides, the GI50 with OVCAR-5, in the assay with Malme-3M, in the assay on A549, with IGROV-1, in the assay with OVCAR-3 and in the assay with SK-MEL-28 was > 100 µM (inactive) throughout.
`CNC(=S)c1nnsc1N`: the GI50 in the assay with T47D was 2.03 µM (inactive); in the assay with SK-MEL-2, > 100 µM (inactive); in the assay with A498 it was 87.3 µM (inactive); in the assay with EKVX it was > 100 µM (inactive); in the assay with U-251 it was > 100 µM (inactive); with LOX IMVI, > 100 µM (inactive). In addition, the GI50 is > 100 µM (inactive) in the assay on SF-295; 0.9 µM (active) with RPMI-8226; > 100 µM (inactive) with NCI-H23; > 100 µM (inactive) in the assay on MOLT-4; > 100 µM (inactive) in the assay on ACHN; > 100 µM (inactive) in the assay on MDA-MB-435. Further, the GI50 with OVCAR-5 is > 100 µM (inactive); with Malme-3M it was > 100 µM (inactive); in the assay on M14, > 100 µM (inactive); in the assay with A549, > 100 µM (inactive); with IGROV-1 it was 2.99 µM (inactive); in the assay with OVCAR-3 it was 0.479 µM (active). The GI50 in the assay with SK-MEL-28 is > 100 µM (inactive).
On to `Cc1nc(C)c(N2CCNCC2)c(O)n1`, for which the GI50 in the assay on T47D, with A498, with EKVX, in the assay on U-251, in the assay with LOX IMVI and with SF-295 was > 100 µM (inactive) throughout. Moreover, the GI50 in the assay on RPMI-8226, with NCI-H23, in the assay with MOLT-4, in the assay with ACHN, in the assay with MDA-MB-435 and in the assay with Malme-3M was > 100 µM (inactive) throughout. For the same compound, the GI50 in the assay on SNB-19, in the assay on M14, in the assay with A549, in the assay on IGROV-1, in the assay with OVCAR-3 and with SK-MEL-28 was > 100 µM (inactive) each time.
Take `Cc1cc(C)nc(NS(=O)(=O)c2ccc(NC(=O)c3cccc4c(NNc5ccc(S(=O)(=O)N=C(N)N)cc5)c5ccccc5nc34)cc2)n1`: the GI50 in the assay on T47D, with A498, in the assay with EKVX, with U-251, in the assay on LOX IMVI and in the assay with SF-295 was > 50 µM (inactive) throughout. In addition, the GI50 in the assay with RPMI-8226, in the assay on NCI-H23, in the assay on MOLT-4, in the assay with ACHN, in the assay on MDA-MB-435 and in the assay with Malme-3M was > 50 µM (inactive) throughout. For the same compound, the GI50 in the assay on SNB-19, with M14, with A549, in the assay with IGROV-1 and in the assay on OVCAR-3 was > 50 µM (inactive) in each case.
As for `OC(CN(CCCl)CCCl)C(O)C(O)C(O)CN(CCCl)CCCl` (stereo not drawn), the GI50 in the assay with T47D is 30.5 µM (inactive); with SK-MEL-2 it was > 100 µM (inactive); with A498 it was > 100 µM (inactive); in the assay with EKVX, > 100 µM (inactive); in the assay on U-251 it was 37.4 µM (inactive); in the assay on LOX IMVI, 27.4 µM (inactive). Also, the GI50 was > 100 µM (inactive) in the assay with RPMI-8226; 63.1 µM (inactive) in the assay on NCI-H23; 2.7 µM (inactive) in the assay with ACHN; > 100 µM (inactive) in the assay on MDA-MB-435; > 100 µM (inactive) with OVCAR-5; 85.7 µM (inactive) in the assay with Malme-3M. For the same compound, the GI50 in the assay on SNB-19, in the assay with M14, in the assay on A549, in the assay with IGROV-1, in the assay with OVCAR-3 and with SK-MEL-28 was > 100 µM (inactive) in each case.
Take `Cc1ccnc2[nH]c(-c3ccccc3)cc(=O)c12`: the GI50 in the assay with T47D was 42.5 µM (inactive); in the assay with A498, > 10 µM (inactive); in the assay with EKVX, 0.3 µM (active); in the assay on U-251 it was 0.00552 µM (active); in the assay on LOX IMVI, 0.0149 µM (active); with SF-295 it was 0.00309 µM (active). Also, the GI50 in the assay with RPMI-8226 is 0.00731 µM (active); in the assay with NCI-H23, 0.0297 µM (active); in the assay with MOLT-4 it was 0.0132 µM (active); with ACHN it was 0.0458 µM (active); in the assay with MDA-MB-435, 0.1 µM (active); with OVCAR-5, 0.643 µM (active). Moreover, the GI50 is 0.0092 µM (active) in the assay on Malme-3M; 0.0233 µM (active) with SNB-19; 0.00658 µM (active) in the assay on M14; 0.0153 µM (active) in the assay on A549; 0.0726 µM (active) with IGROV-1; 0.00583 µM (active) in the assay with OVCAR-3. For the same compound, the GI50 with SK-MEL-28 is 0.01 µM (active).
`Cc1nc(N)c(N2CCNCC2)c(O)n1`: the GI50 in the assay with T47D, in the assay on SK-MEL-2, in the assay with A498, with EKVX, in the assay with U-251 and in the assay with LOX IMVI was > 100 µM (inactive) each time. In addition, the GI50 in the assay with SF-295, with RPMI-8226, in the assay with NCI-H23, in the assay on MOLT-4, in the assay on ACHN and with MDA-MB-435 was > 100 µM (inactive) each time. Besides, the GI50 was > 100 µM (inactive) in the assay on OVCAR-5; > 100 µM (inactive) in the assay with Malme-3M; > 100 µM (inactive) with SNB-19; > 100 µM (inactive) in the assay on M14; > 100 µM (inactive) with A549; 76.7 µM (inactive) in the assay with OVCAR-3. The GI50 with SK-MEL-28 was > 100 µM (inactive).
On to `O=C(c1cc(Cl)cc(Cl)c1)N(Cc1cccnc1)C(=S)N(Cc1cccnc1)C(=O)c1cc(Cl)cc(Cl)c1`, for which the GI50 was 44.7 µM (inactive) with T47D; 31.7 µM (inactive) with SK-MEL-2; 27.4 µM (inactive) in the assay on A498; 87.1 µM (inactive) in the assay on EKVX; 22.2 µM (inactive) in the assay with U-251; 34.1 µM (inactive) in the assay on LOX IMVI. Moreover, the GI50 in the assay with SF-295 was 55.5 µM (inactive); in the assay on RPMI-8226, 4.37 µM (inactive); in the assay on NCI-H23, 63.1 µM (inactive); with MOLT-4 it was 38.9 µM (inactive); in the assay on ACHN, 22.5 µM (inactive); with MDA-MB-435, 85.9 µM (inactive). Also, the GI50 is 35.6 µM (inactive) in the assay with OVCAR-5; 55.8 µM (inactive) in the assay with Malme-3M; 52.6 µM (inactive) with SNB-19; 26.4 µM (inactive) with M14; > 100 µM (inactive) in the assay with A549; 21.7 µM (inactive) in the assay with OVCAR-3. In the assay with SK-MEL-28, the GI50 was 97.3 µM (inactive).
`O=c1[nH]ncc2[nH]c3c(c12)CCCc1ccccc1-3`: the GI50 in the assay on T47D is 46.9 µM (inactive); with SK-MEL-2, 34.9 µM (inactive); in the assay with A498 it was 27.6 µM (inactive); in the assay with EKVX it was 4.92 µM (inactive); in the assay with U-251, 38.6 µM (inactive); in the assay with LOX IMVI it was 44.3 µM (inactive). Moreover, the GI50 with SF-295 is 32.5 µM (inactive); with RPMI-8226, 27.8 µM (inactive); in the assay on NCI-H23, 40.6 µM (inactive); in the assay on MOLT-4, 17.5 µM (inactive); in the assay with ACHN, 32.8 µM (inactive); with MDA-MB-435, 25.7 µM (inactive). In addition, the GI50 is 43.4 µM (inactive) with OVCAR-5; 96.2 µM (inactive) with Malme-3M; 71.6 µM (inactive) with SNB-19; 46.6 µM (inactive) with M14; 33.3 µM (inactive) in the assay with A549; 55.2 µM (inactive) in the assay with IGROV-1. Further, in the assay with OVCAR-3, the GI50 was 48.4 µM (inactive).
